Experiments:
Experiment in all cases: biochemical
Design in all cases: KINOMEscan competition binding panel (Eurofins DiscoverX), single concentration, % inhibition
Details in all cases: read-out: 7 at 1 µM % inhibition
[1] = target: T1, CDK4-cyclinD1 (Homo sapiens, UniProt P11802)
T1 construct: cyclinD1
Method in brief: (§1)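 Selectivity profile from a KINOMEscan run against >400 human kinases; test concentration 1 µM.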

[2] = target: T2, ERK8 (Homo sapiens, UniProt Q8TD08)
T2 construct: gene MAPK15
Method in brief: as §1

[3] = target: PIKFYVE (Homo sapiens, UniProt Q9Y2I7)
Method in brief: as §1

[4] = target: T3, PCTK2 (Homo sapiens, UniProt Q00537)
T3 construct: gene CDK17
Method in brief: as §1

[5] = target: EPHA7 (Homo sapiens, UniProt Q15375)
Method in brief: as §1

[6] = target: MARK3 (Homo sapiens, UniProt P27448)
Method in brief: as §1

[7] = target: EPHB2 (Homo sapiens, UniProt P29323)
Method in brief: as §1

[8] = target: CLK2 (Homo sapiens, UniProt P49760)
Chain of CLK2 (P49760 whole entry): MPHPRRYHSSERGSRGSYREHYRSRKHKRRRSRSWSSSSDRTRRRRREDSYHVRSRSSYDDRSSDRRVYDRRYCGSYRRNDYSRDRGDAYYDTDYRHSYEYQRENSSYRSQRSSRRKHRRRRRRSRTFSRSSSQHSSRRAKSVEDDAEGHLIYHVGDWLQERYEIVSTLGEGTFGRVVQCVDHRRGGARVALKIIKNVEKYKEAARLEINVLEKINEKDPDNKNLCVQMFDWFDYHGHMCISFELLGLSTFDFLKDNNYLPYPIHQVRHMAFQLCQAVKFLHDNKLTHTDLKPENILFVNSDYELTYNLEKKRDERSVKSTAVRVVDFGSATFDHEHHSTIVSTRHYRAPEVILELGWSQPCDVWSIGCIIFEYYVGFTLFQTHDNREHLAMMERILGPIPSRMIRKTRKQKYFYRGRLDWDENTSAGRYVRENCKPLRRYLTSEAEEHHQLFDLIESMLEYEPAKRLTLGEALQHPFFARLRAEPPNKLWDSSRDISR
Method in brief: as §1

[9] = target: FYN (Homo sapiens, UniProt P06241)
Method in brief: as §1

[10] = target: CIT (Homo sapiens, UniProt O14578)
Method in brief: as §1

[11] = target: CSNK1A1 (Homo sapiens, UniProt P48729)
Method in brief: as §1

[12] = target: EPHA1 (Homo sapiens, UniProt P21709)
Method in brief: as §1

[13] = target: AKT1 (Homo sapiens, UniProt P31749)
Method in brief: as §1

[14] = target: BRSK2 (Homo sapiens, UniProt Q8IWQ3)
Chain of BRSK2 (Q8IWQ3 whole entry): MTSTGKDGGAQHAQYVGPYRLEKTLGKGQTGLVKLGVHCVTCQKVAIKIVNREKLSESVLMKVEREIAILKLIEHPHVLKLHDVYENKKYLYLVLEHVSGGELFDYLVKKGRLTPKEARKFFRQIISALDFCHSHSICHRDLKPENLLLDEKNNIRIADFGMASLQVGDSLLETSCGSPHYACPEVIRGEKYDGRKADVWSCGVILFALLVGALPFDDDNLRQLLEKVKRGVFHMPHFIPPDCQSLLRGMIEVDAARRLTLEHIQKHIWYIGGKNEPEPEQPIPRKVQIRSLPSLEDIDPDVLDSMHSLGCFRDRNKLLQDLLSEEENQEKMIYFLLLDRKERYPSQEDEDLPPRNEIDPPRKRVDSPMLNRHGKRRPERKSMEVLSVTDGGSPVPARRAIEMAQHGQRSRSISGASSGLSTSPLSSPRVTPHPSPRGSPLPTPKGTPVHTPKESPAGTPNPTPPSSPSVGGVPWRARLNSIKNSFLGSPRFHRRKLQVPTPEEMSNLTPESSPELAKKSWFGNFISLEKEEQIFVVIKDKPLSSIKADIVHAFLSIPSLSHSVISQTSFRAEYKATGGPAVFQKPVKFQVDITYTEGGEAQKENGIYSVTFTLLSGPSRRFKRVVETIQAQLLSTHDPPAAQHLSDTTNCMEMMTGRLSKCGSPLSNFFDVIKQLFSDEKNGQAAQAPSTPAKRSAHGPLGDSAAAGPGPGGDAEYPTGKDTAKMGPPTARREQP
Method in brief: as §1

[15] = target: MYO3A (Homo sapiens, UniProt Q8NEV4)
Chain of MYO3A (Q8NEV4 whole entry): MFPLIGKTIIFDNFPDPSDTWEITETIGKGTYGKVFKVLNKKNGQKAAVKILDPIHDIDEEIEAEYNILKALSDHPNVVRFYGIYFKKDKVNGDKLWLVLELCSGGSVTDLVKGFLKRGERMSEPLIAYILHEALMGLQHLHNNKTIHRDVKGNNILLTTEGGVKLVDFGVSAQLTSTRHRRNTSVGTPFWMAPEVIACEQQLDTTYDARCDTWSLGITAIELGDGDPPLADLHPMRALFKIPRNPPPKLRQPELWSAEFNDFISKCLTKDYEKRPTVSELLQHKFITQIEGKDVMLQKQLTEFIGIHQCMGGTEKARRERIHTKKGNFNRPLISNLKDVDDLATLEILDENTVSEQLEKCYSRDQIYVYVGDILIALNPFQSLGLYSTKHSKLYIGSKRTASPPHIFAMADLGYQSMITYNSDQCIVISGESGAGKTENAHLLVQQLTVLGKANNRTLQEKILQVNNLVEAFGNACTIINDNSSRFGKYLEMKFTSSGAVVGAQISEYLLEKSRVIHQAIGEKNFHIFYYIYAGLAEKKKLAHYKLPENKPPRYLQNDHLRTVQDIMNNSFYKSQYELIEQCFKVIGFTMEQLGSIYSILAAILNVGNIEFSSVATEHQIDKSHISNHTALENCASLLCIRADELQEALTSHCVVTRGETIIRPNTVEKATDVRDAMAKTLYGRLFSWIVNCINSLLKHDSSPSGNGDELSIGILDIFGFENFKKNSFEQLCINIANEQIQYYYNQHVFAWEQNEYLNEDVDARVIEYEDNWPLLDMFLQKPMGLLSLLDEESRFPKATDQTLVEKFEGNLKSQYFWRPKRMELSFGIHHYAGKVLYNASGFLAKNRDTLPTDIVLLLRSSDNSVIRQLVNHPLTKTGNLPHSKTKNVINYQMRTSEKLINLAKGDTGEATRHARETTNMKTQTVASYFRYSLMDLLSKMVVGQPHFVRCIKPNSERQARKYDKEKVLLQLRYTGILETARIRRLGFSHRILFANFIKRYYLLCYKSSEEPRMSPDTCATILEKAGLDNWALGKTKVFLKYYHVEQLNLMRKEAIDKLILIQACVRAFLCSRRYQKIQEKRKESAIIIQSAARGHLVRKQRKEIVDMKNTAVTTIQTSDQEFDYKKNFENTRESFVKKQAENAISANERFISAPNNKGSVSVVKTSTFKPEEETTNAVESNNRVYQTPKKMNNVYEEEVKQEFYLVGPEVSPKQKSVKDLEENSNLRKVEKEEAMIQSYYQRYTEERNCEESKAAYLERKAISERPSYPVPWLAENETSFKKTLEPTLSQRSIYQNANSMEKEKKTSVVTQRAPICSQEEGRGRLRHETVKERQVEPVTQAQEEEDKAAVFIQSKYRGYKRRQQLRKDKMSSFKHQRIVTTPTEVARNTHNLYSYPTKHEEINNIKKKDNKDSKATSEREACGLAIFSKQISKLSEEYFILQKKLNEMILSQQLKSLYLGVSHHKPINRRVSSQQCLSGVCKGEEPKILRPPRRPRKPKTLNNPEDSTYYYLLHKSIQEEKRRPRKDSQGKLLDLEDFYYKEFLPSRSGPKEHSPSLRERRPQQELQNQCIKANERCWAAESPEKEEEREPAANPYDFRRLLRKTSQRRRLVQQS
Method in brief: as §1

[16] = target: T4, MINK (Homo sapiens, UniProt Q8N4C8)
T4 construct: gene MINK1
Method in brief: as §1

[17] = target: WEE1 (Homo sapiens, UniProt P30291)
Method in brief: as §1

[18] = target: T5, MST3 (Homo sapiens, UniProt Q9Y6E0)
T5 construct: gene STK24
T5 sequence (Q9Y6E0 whole entry): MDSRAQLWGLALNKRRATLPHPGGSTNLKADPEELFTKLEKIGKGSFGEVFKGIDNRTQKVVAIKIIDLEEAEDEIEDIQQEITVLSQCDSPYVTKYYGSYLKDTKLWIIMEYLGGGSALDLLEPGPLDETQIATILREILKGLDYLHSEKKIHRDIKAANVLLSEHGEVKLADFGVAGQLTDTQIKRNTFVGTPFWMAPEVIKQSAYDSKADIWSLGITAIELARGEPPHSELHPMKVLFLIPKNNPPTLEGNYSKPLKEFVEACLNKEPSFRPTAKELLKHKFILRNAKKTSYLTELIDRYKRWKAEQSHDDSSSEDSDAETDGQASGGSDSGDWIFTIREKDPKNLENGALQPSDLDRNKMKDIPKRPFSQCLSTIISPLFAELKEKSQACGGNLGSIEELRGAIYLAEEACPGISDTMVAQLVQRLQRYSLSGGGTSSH
Method in brief: as §1

[19] = target: CSF1R-autoinhibited (Homo sapiens, UniProt P07333)
Method in brief: as §1

[20] = target: MARK4 (Homo sapiens, UniProt Q96L34)
Method in brief: as §1

[21] = target: ACVR1 (Homo sapiens, UniProt Q04771)
Method in brief: as §1

[22] = target: T6, TRKA (Homo sapiens, UniProt P04629)
T6 construct: gene NTRK1
T6 sequence (P04629 whole entry): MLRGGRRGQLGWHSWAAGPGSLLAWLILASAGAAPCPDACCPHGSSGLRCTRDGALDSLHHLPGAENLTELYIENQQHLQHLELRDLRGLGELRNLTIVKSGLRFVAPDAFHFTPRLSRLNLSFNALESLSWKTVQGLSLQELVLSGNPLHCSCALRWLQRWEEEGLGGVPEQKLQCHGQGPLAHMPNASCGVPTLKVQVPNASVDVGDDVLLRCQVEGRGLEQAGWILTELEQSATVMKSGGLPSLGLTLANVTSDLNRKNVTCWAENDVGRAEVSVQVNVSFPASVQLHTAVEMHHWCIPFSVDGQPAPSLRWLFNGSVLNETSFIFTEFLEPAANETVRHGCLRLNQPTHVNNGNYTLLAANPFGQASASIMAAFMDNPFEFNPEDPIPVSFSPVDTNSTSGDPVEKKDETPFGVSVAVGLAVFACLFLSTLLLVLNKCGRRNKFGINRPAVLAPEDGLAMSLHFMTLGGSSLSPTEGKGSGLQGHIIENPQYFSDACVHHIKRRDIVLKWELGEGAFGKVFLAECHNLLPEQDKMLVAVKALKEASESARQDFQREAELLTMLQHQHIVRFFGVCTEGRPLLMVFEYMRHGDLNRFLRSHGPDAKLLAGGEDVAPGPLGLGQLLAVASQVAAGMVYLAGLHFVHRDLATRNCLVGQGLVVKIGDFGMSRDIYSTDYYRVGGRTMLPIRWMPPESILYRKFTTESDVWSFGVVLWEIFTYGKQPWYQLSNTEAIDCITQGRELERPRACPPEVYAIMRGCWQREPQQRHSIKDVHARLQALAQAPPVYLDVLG
Method in brief: as §1

[23] = target: PRKD2 (Homo sapiens, UniProt Q9BZL6)
Chain of PRKD2 (Q9BZL6 whole entry): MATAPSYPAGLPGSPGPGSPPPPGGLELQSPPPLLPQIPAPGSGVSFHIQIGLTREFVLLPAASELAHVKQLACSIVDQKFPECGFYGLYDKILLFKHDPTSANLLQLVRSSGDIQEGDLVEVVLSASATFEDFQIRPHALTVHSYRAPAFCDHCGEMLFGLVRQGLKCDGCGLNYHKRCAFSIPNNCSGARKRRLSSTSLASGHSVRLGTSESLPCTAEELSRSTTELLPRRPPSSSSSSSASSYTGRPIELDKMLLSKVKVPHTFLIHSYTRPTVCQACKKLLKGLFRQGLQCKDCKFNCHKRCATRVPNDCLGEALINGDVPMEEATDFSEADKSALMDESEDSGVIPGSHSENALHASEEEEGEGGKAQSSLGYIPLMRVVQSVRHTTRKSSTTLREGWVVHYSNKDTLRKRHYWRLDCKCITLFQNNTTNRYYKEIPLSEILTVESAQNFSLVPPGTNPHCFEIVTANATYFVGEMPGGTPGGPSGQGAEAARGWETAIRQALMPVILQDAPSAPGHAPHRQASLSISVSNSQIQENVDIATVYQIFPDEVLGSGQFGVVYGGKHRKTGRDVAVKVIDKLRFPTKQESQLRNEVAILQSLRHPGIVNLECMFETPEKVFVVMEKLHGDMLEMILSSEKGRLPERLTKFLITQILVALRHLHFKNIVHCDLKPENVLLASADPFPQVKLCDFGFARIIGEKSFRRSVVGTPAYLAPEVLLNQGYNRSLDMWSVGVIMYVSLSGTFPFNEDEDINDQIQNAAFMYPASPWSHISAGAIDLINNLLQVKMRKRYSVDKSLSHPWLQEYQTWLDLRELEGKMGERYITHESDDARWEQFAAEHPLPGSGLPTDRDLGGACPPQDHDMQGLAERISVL
Method in brief: as §1

[24] = target: WNK2 (Homo sapiens, UniProt Q9Y3S1)
Method in brief: as §1

[25] = target: T7, ABL1(M351T)-phosphorylated (Homo sapiens, UniProt P00519, M351T)
T7 construct: phosphorylated
Method in brief: as §1

CNS(=O)(=O)c1ccc(N(C)C)c(Nc2ncnc3cc(OC)c(OC)cc23)c1 [compound 7, 3-((6,7-dimethoxyquinazolin-4-yl)amino)-4-(dimethylamino)-N-methylbenzenesulfonamide]
inhibition at 1 µM [1]: 20%
inhibition at 1 µM [2]: 13%
inhibition at 1 µM [3]: 7%
inhibition at 1 µM [4]: 0%
inhibition at 1 µM [5]: 0%
inhibition at 1 µM [6]: 0%
inhibition at 1 µM [7]: 0%
inhibition at 1 µM [8]: 7%
inhibition at 1 µM [9]: 0%
inhibition at 1 µM [10]: 0%
inhibition at 1 µM [11]: 0%
inhibition at 1 µM [12]: 0%
inhibition at 1 µM [13]: 0%
inhibition at 1 µM [14]: 27%
inhibition at 1 µM [15]: 0%
inhibition at 1 µM [16]: 18%
inhibition at 1 µM [17]: 0%
inhibition at 1 µM [18]: 0%
inhibition at 1 µM [19]: 39%
inhibition at 1 µM [20]: 2%
inhibition at 1 µM [21]: 0%
inhibition at 1 µM [22]: 22%
inhibition at 1 µM [23]: 8%
inhibition at 1 µM [24]: 0%
inhibition at 1 µM [25]: 6%
